Consider 18 compounds from patent US12570655B2, “Cysteine covalent modifiers of AKT1 and uses thereof” (Terremoto Biosciences, Inc., priority 2023, dated 2026).

What all share (format): cell-based
One assay deals with T1, AKT1 E17K (Homo sapiens, UniProt P31749, E17K).
T1 construct: expressed in transfected cells; host or cells: HEK293
In words: Live cell AKT1 E17K target engagement by NanoBRET competitive probe displacement. Conditions: HEK293 cells transfected with kinase-NanoLuciferase fusion, 2 h at 37° C. In short, it runs like this: (§1)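 Live-cell competitive tracer displacement in HEK293 expressing NanoLuciferase-tagged kinase. Compound and ATP-competitive tracer (~EC50) are co-incubated 2 h at 37 °C; BRET (E600/E460) gives IC50.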

Another assay deals with T2, AKT1 WT (Homo sapiens, UniProt P31749).
T2 construct: expressed in transfected cells; host or cells: HEK293
Put plainly: Live cell AKT1 WT target engagement by NanoBRET competitive probe displacement. The note with it: HEK293 cells transfected with kinase-NanoLuciferase fusion, 2 h at 37° C. In short, it runs like this:
as §1

In the next assay the target is T3, AKT2 (Homo sapiens, UniProt P31751).
T3 construct: expressed in transfected cells; host or cells: HEK293
In words: Live cell AKT2 target engagement by NanoBRET competitive probe displacement. The note with it: HEK293 cells transfected with kinase-NanoLuciferase fusion, 2 h at 37° C. An outline of the steps:
as §1

Assay [1] concerns LAPC4 prostate cancer cells. Put plainly: Antiproliferative effects in LAPC4 cells (CellTiter Glo). Conditions: LAPC4 cells (AKT1 E17K allele), read-out: LAPC4 proliferation IC50. An outline of the steps: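 Cells grown in IMDM supplemented with 12% FBS plus 1% P/S were treated for 72 h with DMSO-dissolved compounds. ATP-based luminescence was fitted to a log(inhibitor) versus response Hill model, giving IC50.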
A general note: ATP-based viability assays read luminescence as a measure of living cells.

Read-outs that look alike come from different tables or passages of the source.

T1 sequence (P31749 whole entry E17K): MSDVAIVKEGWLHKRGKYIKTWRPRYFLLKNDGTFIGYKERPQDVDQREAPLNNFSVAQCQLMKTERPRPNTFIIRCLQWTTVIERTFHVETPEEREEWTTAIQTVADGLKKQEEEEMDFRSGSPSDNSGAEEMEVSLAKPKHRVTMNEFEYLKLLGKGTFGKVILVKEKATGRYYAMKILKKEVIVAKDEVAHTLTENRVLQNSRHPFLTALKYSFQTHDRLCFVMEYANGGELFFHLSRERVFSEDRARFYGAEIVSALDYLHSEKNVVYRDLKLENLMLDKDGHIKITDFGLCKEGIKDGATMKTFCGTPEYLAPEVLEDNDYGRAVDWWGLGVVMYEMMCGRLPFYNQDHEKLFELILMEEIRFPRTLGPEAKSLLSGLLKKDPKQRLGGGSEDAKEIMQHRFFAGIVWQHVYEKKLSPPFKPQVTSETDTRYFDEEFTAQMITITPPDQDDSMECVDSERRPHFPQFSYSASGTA
T3 sequence (P31751 whole entry): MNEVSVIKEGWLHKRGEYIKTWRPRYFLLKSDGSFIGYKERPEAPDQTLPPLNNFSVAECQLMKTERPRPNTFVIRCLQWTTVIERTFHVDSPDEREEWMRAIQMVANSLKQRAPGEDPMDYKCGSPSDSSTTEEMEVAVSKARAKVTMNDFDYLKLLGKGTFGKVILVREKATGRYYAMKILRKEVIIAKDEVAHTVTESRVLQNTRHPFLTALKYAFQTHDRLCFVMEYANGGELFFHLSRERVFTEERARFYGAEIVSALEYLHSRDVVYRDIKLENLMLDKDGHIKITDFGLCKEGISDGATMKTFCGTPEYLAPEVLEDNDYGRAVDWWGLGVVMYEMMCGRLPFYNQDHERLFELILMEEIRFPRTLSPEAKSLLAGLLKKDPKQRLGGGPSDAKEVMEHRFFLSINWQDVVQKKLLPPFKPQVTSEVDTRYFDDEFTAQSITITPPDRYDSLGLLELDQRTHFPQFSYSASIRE
T2 sequence (P31749 whole entry): as the sequence (P31749 whole entry E17K) above, with K17E counted along it

As to `C=CC(=O)N1CCC(N[C@H]2CCc3cc(-n4c(-c5cccnc5N)nc5ccc(-n6ccc(F)n6)nc54)ccc32)CC1` [Example 49, (S)-1-(4-((5-(2-(2-aminopyridin-3-yl)-5-(3-fluoro-1H-pyrazol-1-yl)-3H-imidazo[4,5-b]pyridin-3-yl)-2,3-dihydro-1H-inden-1-yl)amino)piperidin-1-yl)prop-2-en-1-one], the IC50 at AKT1 E17K came to 146 nM; at AKT1 WT it was 50.9 nM; at AKT2, 980 nM; in assay [1] (Homo sapiens, LAPC4, 72 h), 406 nM.
The matching figures for `C=C(F)C(=O)N1CCc2c(C(=O)N[C@H]3CCc4cc(-n5c(-c6cccnc6N)nc6ccc(-n7cccn7)nc65)ccc43)cccc21` [Example 18, (S)-N-(5-(2-(2-aminopyridin-3-yl)-5-(1H-pyrazol-1-yl)-3H-imidazo[4,5-b]pyridin-3-yl)-2,3-dihydro-1H-inden-1-yl)-1-(2-fluoroacryloyl)indoline-4-carboxamide]: 243 nM, 61.5 nM, 208 nM and 1570 nM.
In the case of `C=CC(=O)N1CCC(N[C@@H]2c3ccc(-n4c(-c5cccnc5N)nc5ccc(-n6ccc(F)n6)nc54)cc3CC2F)C[C@H]1C` (single isomer, unassigned) [Example 277, 1-((2R,4*)-4-(((1R,2*)-5-(2-(2-aminopyridin-3-yl)-5-(3-fluoro-1H-pyrazol-1-yl)-3H-imidazo[4,5-b]pyridin-3-yl)-2-fluoro-2,3-dihydro-1H-inden-1-yl)amino)-2-methylpiperidin-1-yl)prop-2-en-1-one], the IC50 is 23.3 nM at AKT1 E17K, 821 nM at AKT1 WT, 54.6 nM at AKT2 and 138 nM in assay [1] (72 h).
As for `C=CC(=O)N1CCc2ccc(C(=O)N[C@H]3CCc4cc(-n5c(-c6cccnc6N)nc6ccc(-n7cccn7)nc65)ccc43)cc21` [Example 7, (S)-1-acryloyl-N-(5-(2-(2-aminopyridin-3-yl)-5-(1H-pyrazol-1-yl)-3H-imidazo[4,5-b]pyridin-3-yl)-2,3-dihydro-1H-inden-1-yl)indoline-6-carboxamide], the IC50 came out at 42.8 nM on AKT1 E17K; 20.7 nM at AKT1 WT; 69.4 nM on AKT2; 2060 nM in assay [1] (Homo sapiens, LAPC4, 72 h).
For the compound `C=CC(=O)N1CCN(N[C@H]2CCc3cc(-n4c(-c5cccnc5N)nc5ccc(C6CC6)nc54)ccc32)CC1` [Example 349], the IC50 amounted to 32 nM at AKT1 E17K; 1640 nM at AKT1 WT; 432 nM on AKT2; 1160 nM in assay [1] (Homo sapiens, LAPC4, 72 h).
Taken in the same sequence, the figures for `C=CC(=O)N1CC(N[C@H]2CCc3cc(-n4c(-c5cccnc5N)nc5ccc(-n6cccn6)nc54)ccc32)C1` [Example 28, (S)-1-(3-((5-(2-(2-aminopyridin-3-yl)-5-(1H-pyrazol-1-yl)-3H-imidazo[4,5-b]pyridin-3-yl)-2,3-dihydro-1H-inden-1-yl)amino)azetidin-1-yl)prop-2-en-1-one] were 81.6 nM, 50.1 nM, 250 nM and 216 nM.
Taken in the same sequence, the figures for `C=C(F)C(=O)Nc1ccccc1C(=O)N[C@H]1CCc2cc(-n3c(-c4cccnc4N)nc4ccc(-n5cccn5)nc43)ccc21` [Example 5, (S)-N-(5-(2-(2-aminopyridin-3-yl)-5-(1H-pyrazol-1-yl)-3H-imidazo[4,5-b]pyridin-3-yl)-2,3-dihydro-1H-inden-1-yl)-2-(2-fluoroacrylamido)benzamide] were 46.2 nM, 19.4 nM, 271 nM and 310 nM.
Turning to `C=CC(=O)N1CCC(N[C@@H]2c3ccc(-n4c(-c5cccnc5N)nc5ccc(-n6ccc(C#N)n6)nc54)cc3CC2F)CC1` (single isomer, unassigned) [Example 312, 1-(3-((1R,2*)-1-((1-acryloylpiperidin-4-yl)amino)-2-fluoro-2,3-dihydro-1H-inden-5-yl)-2-(2-aminopyridin-3-yl)-3H-imidazo[4,5-b]pyridin-5-yl)-1H-pyrazole-3-carbonitrile], the IC50 on AKT1 E17K was found to be 11.6 nM; at AKT1 WT it was 652 nM; on AKT2 it was 102 nM; in assay [1] (72 h) it was 440 nM.
Consider `C=CC(=O)N1CCC(N(C)[C@H]2CCc3cc(-n4c(-c5cccnc5N)nc5ccc(-n6cccn6)nc54)ccc32)CC1` [Example 67, (S)-1-(4-((5-(2-(2-aminopyridin-3-yl)-5-(1H-pyrazol-1-yl)-3H-imidazo[4,5-b]pyridin-3-yl)-2,3-dihydro-1H-inden-1-yl)(methyl)amino)piperidin-1-yl)prop-2-en-1-one], for which the IC50 worked out at 87.9 nM at AKT1 E17K; 21.8 nM on AKT1 WT; 107 nM on AKT2; 287 nM in assay [1] (Homo sapiens, LAPC4, 72 h).
For `C=CC(=O)NCCc1ccccc1C(=O)N[C@H]1CCc2cc(-n3c(-c4cccnc4N)nc4ccc(-n5cccn5)nc43)ccc21` [Example 268, (S)-2-(2-acrylamidoethyl)-N-(5-(2-(2-aminopyridin-3-yl)-5-(1H-pyrazol-1-yl)-3H-imidazo[4,5-b]pyridin-3-yl)-2,3-dihydro-1H-inden-1-yl)benzamide], the IC50 on AKT1 E17K amounted to 14.8 nM; at AKT1 WT it was 297 nM; on AKT2 it was 55.9 nM; in assay [1] (Homo sapiens, LAPC4, 72 h) it was 358 nM.
With `C=CC(=O)N1CCC(N[C@H]2CC(O)c3cc(-n4c(-c5cccnc5N)nc5ccc(-n6cccn6)nc54)ccc32)CC1` (single isomer, unassigned) [Example 219, 1-(4-(((1S,3*)-5-(2-(2-aminopyridin-3-yl)-5-(1H-pyrazol-1-yl)-3H-imidazo[4,5-b]pyridin-3-yl)-3-hydroxy-2,3-dihydro-1H-inden-1-yl)amino)piperidin-1-yl)prop-2-en-1-one], the IC50 is 45.8 nM on AKT1 E17K, 279 nM at AKT1 WT, 95.7 nM on AKT2 and 77.1 nM in assay [1] (72 h).
As for `C=CC(=O)N1CCC(N[C@H]2CCc3cc(-n4c(-c5cccc(F)c5)nc5ccc(-n6cccn6)nc54)ccc32)CC1` [Example 240, 1-(4-{[(1S)-5-[2-(3-fluorophenyl)-5-(pyrazol-1-yl)imidazo[4,5-b]pyridin-3-yl]-2,3-dihydro-1H-inden-1-yl]amino}piperidin-1-yl)prop-2-en-1-one], the IC50 at AKT1 E17K is 42.6 nM; on AKT1 WT it was 2540 nM; on AKT2, 309 nM; in assay [1] (Homo sapiens, LAPC4, 72 h), 1040 nM.
Taken in the same sequence, the figures for `NC(=O)/C=C/c1ncccc1C(=O)N[C@H]1CCc2cc(-n3c(-c4cccnc4N)nc4ccc(-n5cccn5)nc43)ccc21` [Example 45, N-[(1S)-5-[2-(2-aminopyridin-3-yl)-5-(pyrazol-1-yl)imidazo[4,5-b]pyridin-3-yl]-2,3-dihydro-1H-inden-1-yl]-2-[(1E)-2-carbamoyleth-1-en-1-yl]pyridine-3-carboxamide] were 68.4 nM, 43 nM, 717 nM and 296 nM.
Taken in the same sequence, the figures for `C=C(F)C(=O)Nc1cn(C)nc1C(=O)N[C@H]1CCc2cc(-n3c(-c4cccnc4N)nc4ccc(-n5cccn5)nc43)ccc21` [Example 36, (S)-N-(5-(2-(2-aminopyridin-3-yl)-5-(1H-pyrazol-1-yl)-3H-imidazo[4,5-b]pyridin-3-yl)-2,3-dihydro-1H-inden-1-yl)-4-(2-fluoroacrylamido)-1-methyl-1H-pyrazole-3-carboxamide] were 179 nM, 64.5 nM, 982 nM and 533 nM.
Taken in the same sequence, the figures for `C=CC(=O)N1CCC[C@@H]1C(=O)N[C@H]1CCc2cc(-n3c(-c4cccnc4N)nc4ccc(-n5cccn5)nc43)ccc21` [Example 25] were over 1000 nM, over 1000 nM, over 10000 nM and over 10000 nM.
`C=CC(=O)N1CCC(N[C@H]2CCc3cc(-n4c(-c5cccnc5N)nc5ccc(-c6nc(C)co6)nc54)ccc32)CC1` [Example 253, 1-(4-{[(1S)-5-[2-(2-aminopyridin-3-yl)-5-(4-methyl-1,3-oxazol-2-yl)imidazo[4,5-b]pyridin-3-yl]-2,3-dihydro-1H-inden-1-yl]amino}piperidin-1-yl)prop-2-en-1-one]: the IC50 on AKT1 E17K is 14.5 nM; at AKT1 WT it was 318 nM; on AKT2, 58.8 nM; in assay [1] (Homo sapiens, LAPC4, 72 h), 127 nM.
The matching figures for `C=CC(=O)N(C)c1ccccc1C(=O)N[C@H]1CCc2cc(-n3c(-c4cccnc4N)nc4ccc(-n5cccn5)nc43)ccc21` [Example 4, (S)-N-(5-(2-(2-aminopyridin-3-yl)-5-(1H-pyrazol-1-yl)-3H-imidazo[4,5-b]pyridin-3-yl)-2,3-dihydro-1H-inden-1-yl)-2-(N-methylacrylamido)benzamide]: 823 nM, 212 nM, 3750 nM and 4210 nM.
`C=CC(=O)N1CCC(N[C@H]2CCc3cc(-n4c(-c5cccnc5N)nc5ccc(-n6cccn6)nc54)ccc32)C(C#N)C1` (single isomer, unassigned) [Example 155, (3*,4*)-1-acryloyl-4-(((S)-5-(2-(2-aminopyridin-3-yl)-5-(1H-pyrazol-1-yl)-3H-imidazo[4,5-b]pyridin-3-yl)-2,3-dihydro-1H-inden-1-yl)amino)piperidine-3-carbonitrile]: the IC50 is over 1000 nM at AKT1 E17K, 83.6 nM at AKT1 WT, 1230 nM at AKT2 and 490 nM in assay [1] (72 h).
